Assay [1] deals with CsgA gene expression (csgBAC promoter-GFP reporter) in E. coli UTI89. As to the kind of experiment: In vitro live cell fluorescent reporter assay of CsgA transcription (Reporter Assay). To be noted: Escherichia coli. The assay is classed as cell-based. A digest of the protocol: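 Compounds at 0.14–100 μM (1% DMSO final) incubated 20 h at 27 °C in YESCA broth with UTI89 carrying a single-copy GFP reporter under the csgBAC intergenic promoter region, inoculum OD600 0.003. Fluorescence normalized to vehicle wells gave IC50 and 50%-of-vehicle concentration; OD600 reduction >10% flagged growth impact.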
In general terms: A reporter such as luciferase makes a cellular process visible.

The next assay deals with T1, human α-synuclein (Homo sapiens, UniProt P37840).
T1 construct: the full-length gene for untagged human α-synuclein was inserted; made in house; host or cells: E. coli BL21(DE3), plasmid derived from pT7 or pET11a
As to the kind of experiment: Cell-free Thioflavin T assay of α-synuclein aggregation (αSyn ThT Assay). The assay is classed as biochemical. The note with it: αSyn 50 μM. In a few lines: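 Inhibition is reported as 100% minus background-corrected ThT signal relative to vehicle wells, taken at 36, 47, 48 or 72 h or the last read. Reactions held 50 μM recombinant α-synuclein, 20-100 μM compound, 20-40 μM ThT and 1% DMSO. Incubation was at 37° C., shaken, with a glass bead.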

The mark [2] stands for this setting: read-out: Reporter Assay Abs IC50 (μM), median Abs IC50 in the CsgA reporter assay, N/A = maximum expression reduction is <50% of control.
The mark [3] stands for this setting: read-out: Reporter Assay Abs IC50, activity range, class symbol.
Setting [4] is: class symbol, compounds 100 μM, read-out: αSyn ThT Assay % inhibition, activity range.
Setting [5] is: mean percent inhibition relative to DMSO control, compounds 100 μM, read-out: αSyn ThT Assay % inhibition.

The record followed here is US20230131899A1, “INHIBITORS OF MICROBIALLY INDUCED AMYLOID” (Axial Therapeutics, Inc., priority 2020, published 2023).

Read-outs that look alike come from different tables or passages of the source.

What is called IC50 is the concentration needed to halve the response being measured. For orientation: inhibition means how much of the control response was suppressed. Take `O=C(O)C1CN(CCCCCCN2CC(C(=O)O)n3c(c(-c4cccc(C(F)(F)F)c4)c(Cc4cccc5ccccc45)cc3=O)S2(=O)=O)S(=O)(=O)c2c(-c3cccc(C(F)(F)F)c3)c(Cc3cccc4ccccc34)cc(=O)n21` (racemic) [Compound 043, 2,2′-(hexane-1,6-diyl)bis(8-(naphthalen-1-ylmethyl)-6-oxo-9-(3-(trifluoromethyl)phenyl)-3,4-dihydro-2H,6H-pyrido[1,2-e][1,2,5]thiadiazine-4-carboxylic acid 1,1-dioxide)]: the 50% inhibitory concentration (IC50) was under 1.3 µM in assay [1] (read-out: Reporter Assay Abs IC50 (activity range), median Abs IC50 in the CsgA reporter assay, class symbol) and 0.7 µM in assay [1] (setting [2]). Also, the inhibition at 100 µM at human α-synuclein (mean % inhibition of αSyn aggregation relative to DMSO control, compounds at 100 μM, read-out: αSyn ThT Assay % Inhibition) was 72%; on human α-synuclein (compounds at 100 μM, class symbol, read-out: αSyn ThT Assay % Inhibition (activity range)) it was over 60%.
As for `N#Cc1ccc(CN2CC(C(=O)O)n3c2c(-c2cccc(C(F)(F)F)c2)c(Cc2cccc4ccccc24)c(Cl)c3=O)cc1` (stereo not drawn) [Compound 171, 6-chloro-1-(4-cyanobenzyl)-7-(naphthalen-1-ylmethyl)-5-oxo-8-(3-(trifluoromethyl)phenyl)-1,2,3,5-tetrahydroimidazo[1,2-a]pyridine-3-carboxylic acid], the 50% inhibitory concentration (IC50) in assay [1] (setting [2]) was 1.1 µM; in assay [1] (setting [3]) it was under 1.3 µM. Also, the figures for the inhibition at 100 µM at human α-synuclein (setting [4]) and at human α-synuclein (setting [5]) were 31 to 60% and 32%, respectively.
In the same order, the values of `COc1ccccc1CN1CC(C(=O)O)n2c1c(-c1cccc(C(F)(F)F)c1)c(Cc1cccc3ccccc13)c(Cl)c2=O` (stereo not drawn) [Compound 195, 6-chloro-1-(2-methoxybenzyl)-7-(naphthalen-1-ylmethyl)-5-oxo-8-(3-(trifluoromethyl)phenyl)-1,2,3,5-tetrahydroimidazo[1,2-a]pyridine-3-carboxylic acid] are 1.8 µM, 1.3 to 4.5 µM, 31 to 60% and 45%.
